Values quoted from earlier work, collected in patent EP1219700A1, “Cleaning compositions” (UNILEVER PLC, priority 2000, dated 2002).

Conditions: at 20°C; other common materials, by contrast

Compound	Water Solubility (g/100g)
O=P(O)(O)OP(=O)(O)OP(=O)(O)O [Sodium tripolyphosphate anhydrous]	15
O=BO[O-].[Na+] [Sodium perborate anhydrous]	3.7
